The subject of this assay is autoimmune antibodies (anti-CCP antibody) in serum samples. In words: Sandwich ELISA of patient serum samples on peptide-coated microplates (absorbance at 450 nm). The assay is classed as binding, human. The following applies: diluted 200 times; for Average (absorbance) Normal: normal control group serum samples (25 subjects); for Average (absorbance) SLE: SLE patient serum samples (25 subjects); for Average (absorbance) OA: OA patient serum samples (15 subjects); for Average (absorbance) RA: RA patient serum samples (30 subjects), peptide coated at about 10 μg/ml. As for the experimental part: Sandwich enzyme linked immunosorbent assay (ELISA) using the peptides of Table 1 were performed on the samples from 4 test groups. Serum samples of RA patients (30 subjects), OA patients (15 subjects), SLE patients (25 subjects), and control group samples (25 normal subjects) were prepared.
Each of the prepared peptides of Table 1 was diluted with PBS to about 10 μg/ml, added by about 100 μl to a microplate, and then coated at about 4° C. overnight, followed by adding about 200 μl of BSA solution (10 mg/mL) to each well of the peptide coated microplate to block at room temperature for about 1 hour, and washing the microplate with a PBS including about 0.1% of Tween-20 three times to use the microplate it in this assay. The patient samples and normal control group sample were diluted by 200 times and added triplet by about 100 μl to the wells of the peptide-coated microplate. After being cultured at room temperature for about 1 hour, the resulting microplate was washed three times in the same manner as the above-described washing. To detect autoimmune antibodies in the samples, 100 μl of an anti-human IgG antibody solution ([…]) was added to each cell of the microplate and incubated at room temperature for about 1 hour, followed by washing three times in the same manner as the above-described washing. After 100 μl of a TMB substrate solution was added thereto and reacted at room temperature for about 30 minutes, finally 100 μl of a 2M sulfuric acid solution was added as a stop solution to terminate the reaction, followed by absorbance measurement at a wavelength of about 450 nm using a microplate reader.
Autoimmune antibody levels in the blood samples of normal patients and various types of arthritis patients were analyzed by enzyme linked immunosorbent assay (ELISA) using the peptides of SEQ ID NOS.
Autoimmune antibody levels in the blood samples of normal patients and various arthritis patients were analyzed by ELISA using the peptides of SEQ ID NOS.
In general terms: ELISA stands for enzyme-linked immunosorbent assay.

Positions of bridges follow the written chain, without caps; N, C: chain ends. Non-standard residues stand in square brackets, D forms with d. No end group written: not given here. Cit = NC(=O)NCCC[C@H](N)C(=O)O; Ahx = NCCCCCC(=O)O

Consider “CCP10P: HCHQESTXGPSRGCG; CCP with 10th amino acid arginine substituted by proline (HCHQEST[Cit]GPSRGCG; disulfide 2-14)”, for which the “Average (absorbance) Normal” value was 0.0994.

With “CCP11A: HCHQESTXGRARGCG; CCP with 11th amino acid serine substituted by alanine (HCHQEST[Cit]GRARGCG; disulfide 2-14)”, the “Average (absorbance) SLE” value turned out to be 0.3321 and the “Average (absorbance) Normal” value is 0.1125.

Regarding “CCP12P: HCHQESTXGRSPGCG; CCP with 12th amino acid substituted by proline (HCHQEST[Cit]GRSPGCG; disulfide 2-14)”, the “Average (absorbance) OA” value stood at 0.2847, the “Average (absorbance) SLE” value was 0.3619 and the “Average (absorbance) Normal” value came to 0.1250.

As to “CCP: cyclic citrullinated peptide HCHQESTXGRSRGCG, X citrulline (HCHQEST[Cit]GRSRGCG; disulfide 2-14) [reference compound]”, the “Average (absorbance) OA” value is 0.2314, the “Average (absorbance) RA” value is on record as 0.2522, the “Average (absorbance) SLE” value came out at 0.2347 and the “Average (absorbance) Normal” value turned out to be 0.0874.

On to “CCPPAP: HCHQESTXGPAPGCG; CCP with 10th, 11th, 12th amino acids substituted by proline, alanine, proline (HCHQEST[Cit]GPAPGCG; disulfide 2-14)”, for which the “Average (absorbance) OA” value is 0.2591, the “Average (absorbance) SLE” value was determined as 0.3287 and the “Average (absorbance) Normal” value is recorded as 0.1140.

For “HSH15: HSHQESTXGRSRGSG; CCP with disulfide bond-forming cysteine substituted with serine, X citrulline (HSHQEST[Cit]GRSRGSG)”, the “Average (absorbance) OA” value came to 0.2277, the “Average (absorbance) RA” value came out at 0.1942, the “Average (absorbance) SLE” value was found to be 0.2704 and the “Average (absorbance) Normal” value is 0.1067.

Regarding “HSH17: HSHQESTXGRSRGSGZZ; aminocaproic acid (Z) added to C-terminal of HSH15 (HSHQEST[Cit]GRSRGSG[Ahx][Ahx])”, the “Average (absorbance) Normal” value is 0.1412.

With “RF: rheumatoid factor peptide EGLHNHY (listed as Homo sapiens) [reference compound]”, the “Average (absorbance) OA” value was found to be 0.2791, the “Average (absorbance) RA” value amounted to 0.2534, the “Average (absorbance) SLE” value was determined as 0.3417 and the “Average (absorbance) Normal” value is 0.1484.

Consider “ZZH17: ZZHSHQESTXGRSRGSG; aminocaproic acid (Z) added to N-terminal of HSH15 ([Ahx][Ahx]HSHQEST[Cit]GRSRGSG)”, for which the “Average (absorbance) SLE” value worked out at 0.2738 and the “Average (absorbance) Normal” value is 0.1102.

Take “ZZH19: ZZHSHQESTXGRSRGSGZZ; aminocaproic acid (Z) added to N- and C-terminals of HSH15 ([Ahx][Ahx]HSHQEST[Cit]GRSRGSG[Ahx][Ahx])”: the “Average (absorbance) Normal” value is reported as 0.1609.

The values are drawn from patent publication US10266568B2, “Cyclic citrullinated peptide, rheumatoid arthritis diagnosis composition including the same, rheumatoid arthritis diagnosis method using the peptide or the composition, and method of screening diagnostic marker for rheumatoid arthritis” (KOREA INSTITUTE OF SCIENCE AND TECHNOLOGY, priority 2015, dated 2019).
